“Also recorded” adds a separate entry of the source.
Experiments:
[1] = tested on: human breast cancer MCF-7 cell line; experiment: MTT cytotoxicity assay against MCF-7 breast cancer cells; type: cell-based; conditions: for IC50: Homo sapiens, MCF7, MTT assay, MCF-7 cells, average of at least three independent experiments, read-out: Anticancer activity against MCF-7 cells IC50 mean ± SD
Text: MTT assay was used to evaluate the in vitro cytotoxicity of the new compounds against breast cancer cell lines MCF-7[38]. More details are present in the Supplementary file.
S1: In vitro cytotoxicity experiment
MTT assay was used to evaluate the in vitro cytotoxicity of the new compounds against breast cancer cell lines MCF-7 [39]. MTT assay depends on the reduction of the soluble 3-(4,5-methyl-2-thiazolyl)-2,5-diphenyl-2H-tetrazolium bromide (MTT) into a blue purple formazan product, mainly by mitochondrial reductase activity inside the living cells. The cells used in cytotoxicity […]
at 37 °C in a 5% CO 2 incubator. After 12 h, the test sampl e (2 μL) was added to the cells (2 × 10 4) in 96-well plates and cultured at 37 ◦C for 3 days. The cultured cells were mixed with 20 μL of MTT solution and incubated for 4 h at 37 °C. The supernatant was carefully removed from each well and 100 μL of DMSO we re added to each well to dissolve the formazan crystals which were formed by the cellular reduction of MTT. […]

normal WI38 cells = experiment: MTT assay against normal WI38 cells (safety profile); type: cell-based, human; conditions: for IC50: Homo sapiens, WI-38, MTT assay, normal WI38 cells derived from lung tissues, read-out: IC50 against the normal WI38 cells mean ± SD; for IC50 against WI38 cells, fold higher than IC50 of staurosporine: relative to staurosporine; for IC50 against WI38 cells, fold higher than IC50 against cancer (MCF-7) cells: WI38 vs MCF-7
Text: One of the characteristics differentiating different anticancer agents from each other is the recurrence and severity of their side effects to the normal cells at their therapeutic doses. […].

MCF-7 cells [2] = experiment: Annexin-V/PI apoptosis assay by flow cytometry; type: cell-based, human; conditions: compound at its IC50 concentration, 24 h
Method: (§1) Cell cycle analysis and apoptosis investigation were carried out by flow cytometry.[39]^,[40] […] After treatment with the tested compound, for 24 h, cell pellets were collected and centrifuged (300 g, 5 min).
Flow cytometry method[39]^,[49] has been used to detect the corresponding red (PI) and green (FITC) fluorescence. It has been noted that there was an increment in the percentages of the late apoptosis produced by the evaluated compounds 4b and 4j from 0.13% (control DMSO/MCF-7 cells) to 13.81% and 22.03%, respectively. Also, the tested compounds produced early apoptotic effects of 6.15% and 3.27% compared to 0.58% of the untreated MCF-7 cell with necrosis percent of 4.37% and 9.22%, respectively, vs. 0.66% produced by the DMSO control (Figures 4 and 5).

MCF-7 cells [3] = experiment: Cell cycle analysis by flow cytometry; type: cell-based, human; conditions: for %G0–G1 / %G2/M / %Pre-G1 / %S: compound at its IC50 concentration, 24 h
Method: as §1
The induction of apoptosis is one of the most crucial tools that confirm the effectiveness of cancer therapy. Cell cycle checkpoints are G1 (restriction or start), S ([…]), and G2/M. One of the main functions of the anticancer therapeutics is stoppage of the cell division at these checkpoints.[51] […] The cells were stained with Annexin V/PI and examined using flow cytometry procedure.

PDGFR-α = experiment: In vitro kinase inhibition assay, PDGFR-α; conditions: for IC50: read-out: PDGFR-α IC50
Text: (§2) The procedure of the used kits was done according to the manufacturer, s instructions.
(§3) Which are: EGFR, human epidermal growth factor receptor (HER2), PDGFR-α, and VEGFR-2.

HER-2 = HER-2 (Homo sapiens, UniProt P04626); experiment: In vitro kinase inhibition assay, HER-2 (ADP-Glo Kinase Assay)
Text: as §2, §3

VEGFR-2 = VEGFR-2 (Homo sapiens, UniProt P35968); experiment: In vitro kinase inhibition assay, VEGFR-2 (KDR Kinase Assay Kit)
Text: as §2, §3

EGFR = EGFR (Homo sapiens, UniProt P00533); experiment: In vitro kinase inhibition assay, EGFR (Abcam Human In cell ELISA Kit)
Sequence of EGFR (P00533 25-1210): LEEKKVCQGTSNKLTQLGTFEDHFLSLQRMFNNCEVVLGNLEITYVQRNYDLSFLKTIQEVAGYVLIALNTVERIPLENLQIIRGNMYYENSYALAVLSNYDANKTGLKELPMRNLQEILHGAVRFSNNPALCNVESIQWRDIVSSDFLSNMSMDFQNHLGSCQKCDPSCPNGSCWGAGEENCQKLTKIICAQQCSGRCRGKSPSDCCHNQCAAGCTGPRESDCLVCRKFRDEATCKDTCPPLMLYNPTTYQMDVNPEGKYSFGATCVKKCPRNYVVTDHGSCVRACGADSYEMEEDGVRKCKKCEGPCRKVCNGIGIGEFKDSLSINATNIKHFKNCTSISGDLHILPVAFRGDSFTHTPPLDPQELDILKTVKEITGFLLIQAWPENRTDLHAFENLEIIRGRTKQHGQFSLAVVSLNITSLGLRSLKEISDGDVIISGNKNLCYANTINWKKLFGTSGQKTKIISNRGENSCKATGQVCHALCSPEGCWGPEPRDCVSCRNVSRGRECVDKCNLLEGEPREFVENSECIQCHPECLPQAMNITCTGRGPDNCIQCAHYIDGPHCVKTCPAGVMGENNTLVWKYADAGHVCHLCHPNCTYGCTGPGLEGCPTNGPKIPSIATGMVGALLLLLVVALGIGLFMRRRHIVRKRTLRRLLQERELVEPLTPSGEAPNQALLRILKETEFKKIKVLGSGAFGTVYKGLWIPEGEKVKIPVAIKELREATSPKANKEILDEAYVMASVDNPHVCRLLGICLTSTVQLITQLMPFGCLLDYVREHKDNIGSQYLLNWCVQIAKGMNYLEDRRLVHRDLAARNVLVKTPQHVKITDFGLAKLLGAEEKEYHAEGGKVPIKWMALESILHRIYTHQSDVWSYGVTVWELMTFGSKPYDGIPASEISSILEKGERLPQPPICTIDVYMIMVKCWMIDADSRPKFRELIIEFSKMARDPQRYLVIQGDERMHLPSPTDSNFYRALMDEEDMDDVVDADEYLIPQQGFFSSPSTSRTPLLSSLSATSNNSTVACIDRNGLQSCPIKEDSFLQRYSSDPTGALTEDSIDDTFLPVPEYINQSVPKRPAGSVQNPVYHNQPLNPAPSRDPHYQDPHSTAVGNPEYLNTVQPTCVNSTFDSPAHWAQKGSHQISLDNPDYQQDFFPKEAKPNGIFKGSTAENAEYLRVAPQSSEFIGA
Text: as §2, §3

Sequence of HER-2 (P04626 23-1255): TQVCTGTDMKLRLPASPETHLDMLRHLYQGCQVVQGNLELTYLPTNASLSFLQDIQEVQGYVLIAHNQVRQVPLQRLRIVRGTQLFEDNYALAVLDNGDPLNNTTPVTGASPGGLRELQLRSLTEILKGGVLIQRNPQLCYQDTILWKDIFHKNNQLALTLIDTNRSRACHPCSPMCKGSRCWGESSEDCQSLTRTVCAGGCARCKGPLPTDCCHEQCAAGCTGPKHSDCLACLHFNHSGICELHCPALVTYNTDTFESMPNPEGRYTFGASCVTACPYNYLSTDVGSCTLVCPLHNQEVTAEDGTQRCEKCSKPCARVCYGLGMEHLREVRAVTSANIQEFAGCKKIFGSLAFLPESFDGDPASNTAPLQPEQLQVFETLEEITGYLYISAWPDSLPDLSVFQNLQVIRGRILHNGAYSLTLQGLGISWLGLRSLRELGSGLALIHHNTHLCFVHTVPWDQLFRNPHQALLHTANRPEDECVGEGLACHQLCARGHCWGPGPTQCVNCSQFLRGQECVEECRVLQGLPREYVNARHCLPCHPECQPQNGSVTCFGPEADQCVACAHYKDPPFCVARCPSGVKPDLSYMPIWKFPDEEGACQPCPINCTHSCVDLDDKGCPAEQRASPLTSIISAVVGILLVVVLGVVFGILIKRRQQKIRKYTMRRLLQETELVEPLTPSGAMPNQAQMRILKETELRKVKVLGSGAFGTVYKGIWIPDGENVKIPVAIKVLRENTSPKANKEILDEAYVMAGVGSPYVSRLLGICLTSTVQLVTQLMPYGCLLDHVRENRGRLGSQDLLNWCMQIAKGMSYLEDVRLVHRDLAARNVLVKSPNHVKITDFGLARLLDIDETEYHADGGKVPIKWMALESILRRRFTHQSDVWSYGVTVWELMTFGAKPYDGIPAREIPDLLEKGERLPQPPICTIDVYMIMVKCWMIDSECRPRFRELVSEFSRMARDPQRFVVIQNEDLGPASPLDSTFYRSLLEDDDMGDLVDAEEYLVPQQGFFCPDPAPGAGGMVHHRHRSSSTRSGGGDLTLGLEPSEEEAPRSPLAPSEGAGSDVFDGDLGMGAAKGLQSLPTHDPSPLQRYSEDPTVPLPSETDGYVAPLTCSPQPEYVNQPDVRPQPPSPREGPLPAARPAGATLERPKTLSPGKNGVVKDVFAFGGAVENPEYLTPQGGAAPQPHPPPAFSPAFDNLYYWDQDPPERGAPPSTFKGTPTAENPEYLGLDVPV
Sequence of VEGFR-2 (P35968 20-1356): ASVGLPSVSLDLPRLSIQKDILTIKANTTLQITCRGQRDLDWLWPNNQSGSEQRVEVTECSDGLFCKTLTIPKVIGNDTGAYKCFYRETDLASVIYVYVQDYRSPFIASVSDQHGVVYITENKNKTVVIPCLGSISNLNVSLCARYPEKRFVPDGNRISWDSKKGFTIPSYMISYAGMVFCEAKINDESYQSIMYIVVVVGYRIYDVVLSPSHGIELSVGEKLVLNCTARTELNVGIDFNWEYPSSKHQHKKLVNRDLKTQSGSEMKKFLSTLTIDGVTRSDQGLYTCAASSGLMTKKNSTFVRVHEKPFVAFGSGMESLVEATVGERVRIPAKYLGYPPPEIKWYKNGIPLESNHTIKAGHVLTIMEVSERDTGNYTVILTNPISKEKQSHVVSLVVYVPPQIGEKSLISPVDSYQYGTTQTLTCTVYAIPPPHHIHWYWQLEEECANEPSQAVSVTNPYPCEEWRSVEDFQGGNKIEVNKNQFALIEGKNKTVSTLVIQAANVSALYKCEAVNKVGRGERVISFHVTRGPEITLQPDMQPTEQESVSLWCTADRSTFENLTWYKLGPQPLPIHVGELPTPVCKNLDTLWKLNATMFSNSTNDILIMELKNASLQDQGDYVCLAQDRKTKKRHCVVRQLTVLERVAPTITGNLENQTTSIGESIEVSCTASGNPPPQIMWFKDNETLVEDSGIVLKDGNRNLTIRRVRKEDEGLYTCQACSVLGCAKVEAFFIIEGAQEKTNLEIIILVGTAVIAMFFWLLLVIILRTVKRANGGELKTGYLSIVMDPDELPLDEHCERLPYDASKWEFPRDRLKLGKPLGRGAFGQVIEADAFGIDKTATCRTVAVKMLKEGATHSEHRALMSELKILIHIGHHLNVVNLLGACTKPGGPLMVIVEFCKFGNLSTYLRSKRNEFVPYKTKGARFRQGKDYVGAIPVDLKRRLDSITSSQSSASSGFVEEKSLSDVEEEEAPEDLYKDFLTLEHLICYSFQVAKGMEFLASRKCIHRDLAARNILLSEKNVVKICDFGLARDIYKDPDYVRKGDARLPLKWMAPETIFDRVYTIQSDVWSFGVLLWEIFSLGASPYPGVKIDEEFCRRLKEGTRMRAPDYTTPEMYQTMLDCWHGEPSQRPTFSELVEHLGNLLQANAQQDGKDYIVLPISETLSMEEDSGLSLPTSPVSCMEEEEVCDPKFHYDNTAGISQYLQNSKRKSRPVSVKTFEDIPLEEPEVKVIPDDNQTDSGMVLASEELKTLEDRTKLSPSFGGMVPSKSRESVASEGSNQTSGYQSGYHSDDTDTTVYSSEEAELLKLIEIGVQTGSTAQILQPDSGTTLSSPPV

SMILES: COC(=O)C1=C(C)NC2=C(C(=O)CC(C)(C)C2)C1c1ccc(S(=O)(=O)c2ccccc2)cc1 (stereo not drawn) [Compound 4a, Methyl 2,7,7-trimethyl-5-oxo-4–(4-(phenylsulfonyl)phenyl)-1,4,5,6,7,8-hexahydroquinoline-3-carboxylate]
- IC50 [1]: 103 ± 13 nM

SMILES: CCOC(=O)C1=C(C(F)(F)F)NC2=C(C(=O)CC(C)(C)C2)C1c1ccc(S(=O)(=O)c2ccccc2)cc1 (stereo not drawn) [Compound 4b, Ethyl 7,7-dimethyl-5-oxo-4–(4-(phenylsulfonyl)phenyl)-2-(trifluoromethyl)-1,4,5,6,7,8-hexahydroquinoline-3-carboxylate]
- IC50 [1]: 2 ± 1 nM
- fold more potent than staurosporine against MCF-7 ([1]; ratio of IC50 values, MCF-7): about 2.5 fold
- IC50 (normal WI38 cells): 45 ± 13 nM
- IC50 against WI38 cells, fold higher than IC50 of staurosporine (normal WI38 cells): about 3 fold
- IC50 against WI38 cells, fold higher than IC50 against cancer (MCF-7) cells (normal WI38 cells): 24 fold
- early apoptotic effect (MCF-7 cells [2]): 6.15%
- late apoptosis percentage (MCF-7 cells [2]): 13.81%
- necrosis percent (MCF-7 cells [2]): 4.37%
- %G0–G1 (MCF-7 cells [3]): 45.26%
- %G2/M (MCF-7 cells [3]): 18.03%
- %Pre-G1 (MCF-7 cells [3]): 24.33%
- %S (MCF-7 cells [3]): 36.71%
- IC50 (PDGFR-α): 0.21 ± 0.04 nM
- IC50 (HER-2): 0.3 ± 0.05 nM
- IC50 (VEGFR-2): 1.05 ± 0.02 nM
- VEGFR-2 inhibitory effect, fold less than Sorafenib (VEGFR-2): about 6.2 fold
- IC50 (EGFR): 0.11 ± 0.03 nM

SMILES: CCOC(=O)C1=C(N)NC2=C(C(=O)CC(C)(C)C2)C1c1ccc(S(=O)(=O)c2ccccc2)cc1 (stereo not drawn) [Compound 4c, Ethyl 2-amino-7,7-dimethyl-5-oxo-4–(4-(phenylsulfonyl)phenyl)-1,4,5,6,7,8-hexahydroquinoline-3-carboxylate]
- IC50 [1]: 15 ± 2 nM

SMILES: CC1(C)CC(=O)C2=C(C1)NC(N)=C(C(=O)c1ccccc1)C2c1ccc(S(=O)(=O)c2ccccc2)cc1 (stereo not drawn) [Compound 4d, 2-Amino-3-benzoyl-7,7-dimethyl-4–(4-(phenylsulfonyl)phenyl)-4,6,7,8-tetrahydroquinolin-5(1H)-one]
- IC50 [1]: 7 ± 1 nM
- fold less potent than staurosporine against MCF-7 ([1]; ratio of IC50 values, MCF-7): 1.4 fold

SMILES: Cc1ccc(C(=O)C2=C(N)NC3=C(C(=O)CC(C)(C)C3)C2c2ccc(S(=O)(=O)c3ccccc3)cc2)cc1 (stereo not drawn) [Compound 4e, 2-Amino-7,7-dimethyl-3–(4-methylbenzoyl)-4–(4-(phenylsulfonyl)phenyl)-4,6,7,8-tetrahydroquinolin-5(1H)-one]
- IC50 [1]: 4 ± 2 nM
- IC50 (normal WI38 cells): 14.9 ± 3 nM
- IC50 against WI38 cells, fold higher than IC50 of staurosporine (normal WI38 cells): approximately equal
- IC50 against WI38 cells, fold higher than IC50 against cancer (MCF-7) cells (normal WI38 cells): 4 fold

SMILES: CC1(C)CC(=O)C2=C(C1)NC(N)=C(C(=O)c1ccc(Br)cc1)C2c1ccc(S(=O)(=O)c2ccccc2)cc1 (stereo not drawn) [Compound 4f, 2-Amino-3–(4-bromobenzoyl)-7,7-dimethyl-4–(4-(phenylsulfonyl)phenyl)-4,6,7,8-tetrahydroquinolin-5(1H)-one]
- IC50 [1]: 27 ± 14 nM

SMILES: COC(=O)C1=C(C)NC2=C(C(=O)CC(C)(C)C2)C1c1ccc(S(=O)(=O)c2ccc(C)cc2)cc1 (stereo not drawn) [Compound 4g, Methyl 2,7,7-trimethyl-5-oxo-4–(4-tosylphenyl)-1,4,5,6,7,8-hexahydroquinoline-3-carboxylate]
- IC50 [1]: 27 ± 3 nM

SMILES: CCOC(=O)C1=C(C(F)(F)F)NC2=C(C(=O)CC(C)(C)C2)C1c1ccc(S(=O)(=O)c2ccc(C)cc2)cc1 (stereo not drawn) [Compound 4h, Ethyl 7,7-dimethyl-5-oxo-4–(4-tosylphenyl)-2-(trifluoromethyl)-1,4,5,6,7,8-hexahydroquinoline-3-carboxylate]
- IC50 [1]: 41 ± 6 nM

SMILES: CCOC(=O)C1=C(N)NC2=C(C(=O)CC(C)(C)C2)C1c1ccc(S(=O)(=O)c2ccc(C)cc2)cc1 (stereo not drawn) [Compound 4i, Ethyl 2-amino-7,7-dimethyl-5-oxo-4–(4-tosylphenyl)-1,4,5,6,7,8-hexahydroquinoline-3-carboxylate]
- IC50 [1]: 23 ± 3 nM

SMILES: Cc1ccc(S(=O)(=O)c2ccc(C3C(C(=O)c4ccccc4)=C(N)NC4=C3C(=O)CC(C)(C)C4)cc2)cc1 (stereo not drawn) [Compound 4j, 2-Amino-3-benzoyl-7,7-dimethyl-4–(4-tosylphenyl)-4,6,7,8-tetrahydroquinolin-5(1H)-one]
- IC50 [1]: 3 ± 5 nM
- IC50 (normal WI38 cells): 48 ± 8 nM
- IC50 against WI38 cells, fold higher than IC50 of staurosporine (normal WI38 cells): about 3 fold
- early apoptotic effect (MCF-7 cells [2]): 3.27%
- late apoptosis percentage (MCF-7 cells [2]): 22.03%
- necrosis percent (MCF-7 cells [2]): 9.22%
- cell cycle effect in MCF-7 cells (MCF-7 cells [3]): cell cycle disruption at G2/M phase; also recorded: cell cycle arrest at G2/M phase
- %G0–G1 (MCF-7 cells [3]): 36.99%
- %G2/M (MCF-7 cells [3]): 31.17%
- %Pre-G1 (MCF-7 cells [3]): 34.52%
- %S (MCF-7 cells [3]): 31.84%
- PDGFR-α inhibition, fold more than sorafenib (PDGFR-α): 1.9 fold
- IC50 (PDGFR-α): 0.07 ± 0.01 nM
- HER-2 inhibition, folds more potent than Sorafenib (HER-2): about 1.6 fold
- IC50 (HER-2): 0.17 ± 0.02 nM
- IC50 (VEGFR-2): 0.3 ± 0.06 nM
- VEGFR-2 inhibitory effect, fold less than Sorafenib (VEGFR-2): ~1.8 fold
- IC50 (EGFR): 0.07 ± 0.02 nM

SMILES: Cc1ccc(C(=O)C2=C(N)NC3=C(C(=O)CC(C)(C)C3)C2c2ccc(S(=O)(=O)c3ccc(C)cc3)cc2)cc1 (stereo not drawn) [Compound 4k, 2-Amino-7,7-dimethyl-3–(4-methylbenzoyl)-4–(4-tosylphenyl)-4,6,7,8-tetrahydroquinolin-5(1H)-one]
- IC50 [1]: 4 ± 1 nM
- IC50 (normal WI38 cells): 17.6 ± 9 nM
- IC50 against WI38 cells, fold higher than IC50 of staurosporine (normal WI38 cells): approximately equal
- IC50 against WI38 cells, fold higher than IC50 against cancer (MCF-7) cells (normal WI38 cells): 4 fold

SMILES: Cc1ccc(S(=O)(=O)c2ccc(C3C(C(=O)c4ccc(Br)cc4)=C(N)NC4=C3C(=O)CC(C)(C)C4)cc2)cc1 (stereo not drawn) [Compound 4l, 2-Amino-3–(4-bromobenzoyl)-7,7-dimethyl-4–(4-tosylphenyl)-4,6,7,8-tetrahydroquinolin-5(1H)-one]
- IC50 [1]: 7 ± 1 nM
- fold less potent than staurosporine against MCF-7 ([1]; ratio of IC50 values, MCF-7): 1.4 fold

SMILES: CN[C@@H]1C[C@H]2O[C@@](C)([C@@H]1OC)n1c3ccccc3c3c4c(c5c6ccccc6n2c5c31)C(=O)NC4 [Staurosporine, reference compound]
- IC50 (normal WI38 cells): 13 ± 2 nM

— article PMC8259865, “Design and green synthesis of novel quinolinone derivatives of potential anti-breast cancer activity against MCF-7 cell line targeting multi-receptor tyrosine kinases” (Journal of Enzyme Inhibition and Medicinal Chemistry, 2021)
